# Key:
# [1] = test system: C. aurius 470126 (clinical isolate); assay: MIC, microtiter plate dilution assay; format: cell-based; conditions: 5 × 10^5 CFU/ml, 37°C, OD600 after 48 h, triplicate
# Procedure: (§1) The antimicrobial activity was tested by well diffusion assay as mentioned earlier ([Singh et al., 2014]). Strain A52 was grown for 24 h in 500 ml of nutrient broth (NB, Hi-media, India) using 1000 ml flask and subsequently cells were removed by centrifugation (10,000 rpm for 15 min at 4°C). Supernatant was filtered through 0.22 μm filter (Millipore, United States) to obtain cell-free fermented broth (CFB) that was used for antimicrobial assay (50 μl) against various indicator strains and the activity was measured as diameter of inhibition zone. Test strains used were Staphylococcus aureus (MTCC 1430), Bacillus subtilis (MTCC 121), B. firmus (MTCC 488), B. licheniformis (MTCC 429), B. thuringiensis (MTCC 1953), Escherichia coli (MTCC 1610), Micrococcus luteus (MTCC 106), Steptococcus pyrogens (MTCC 1928), S. anginosus (MTCC 1929), S. oralis (MTCC 2696), S. mutans (MTCC 497), Candida albicans (MTCC 1637), C. albicans (MTCC 183), C. albicans (MTCC 227), C. tropicalis (MTCC 184), C. glabrata (MTCC 3019), C. haemulonii (MTCC 2766), and C. inconsplicue (MTCC 1074). The phytopathogenic fungi employed in this study were Alternaria brassicicola (MTCC 2102), Colletotrichum acutatum (MTCC 1037), and Fusarium moniliforme (MTCC 158). Clinical isolates of Candida were provided by National Culture Collection of Pathogenic Fungi (NCCPF), PGIMER, Chandigarh, India.
# (§2) The minimum inhibitory concentration (MIC) of HPLC purified peptides was evaluated by using microtiter plate dilution assay. The peptide concentration was estimated using BCA protein assay (Thermo Fisher Scientific, United States) method as described by manufacturer. Actively growing test strains (5 × 10^5 CFU/ml) were inoculated in a 96-well plate with different concentrations of the peptides and plates were incubated for 24–48 h at 37°C (final volume in each well is 200 μl). OD was measured at 600 nm after 24 and 48 h for bacteria and yeast, respectively, using ELISA microplate reader (Thermo, United States). MIC against phytopathogenic fungi was determined using 96-well microtiter plate assay ([Kaur et al., 2016]). In 96-well microplates, 100 μl of fungal spore suspension (1 × 10^5 spores/ml) prepared in potato dextrose broth (PDB, Hi-media, India) was mixed with100 μl of fresh PDB containing different concentrations of lipopeptide. Control well contained 100 μl of fungal spore suspension and 100 μl of only medium. The microplates were incubated at 25°C and readings were recorded at 600 nm after 48 h. The lowest concentration showing no growth was considered as MIC. Each test was done in triplicate and optical density (OD600) of peptide treated wells were compared with uninoculated wells (blank medium control).
# C. glabrata MTCC 3019 = assay: MIC, microtiter plate dilution assay; format: cell-based; conditions: 5 × 10^5 CFU/ml, 37°C, OD600 after 48 h, triplicate
# Procedure: as §1, §2
# [2] = test system: C. glabrata SKSS ID (clinical isolate); assay: MIC, microtiter plate dilution assay; format: cell-based; conditions: 5 × 10^5 CFU/ml, 37°C, OD600 after 48 h, triplicate
# Procedure: as §1, §2
# [3] = test system: C. haemulonii 470125 (clinical isolate); assay: MIC, microtiter plate dilution assay; format: cell-based; conditions: 5 × 10^5 CFU/ml, 37°C, OD600 after 48 h, triplicate
# Procedure: as §1, §2
# C. haemulonii MTCC 2766 = assay: MIC, microtiter plate dilution assay; format: cell-based; conditions: 5 × 10^5 CFU/ml, 37°C, OD600 after 48 h, triplicate
# Procedure: as §1, §2
# [4] = test system: C. inconsplicue MTCC 1074; assay: MIC, microtiter plate dilution assay; format: cell-based; conditions: 5 × 10^5 CFU/ml, 37°C, OD600 after 48 h, triplicate
# Procedure: as §1, §2
# [5] = test system: C. kefyr 410004 (clinical isolate); assay: MIC, microtiter plate dilution assay; format: cell-based; conditions: 5 × 10^5 CFU/ml, 37°C, OD600 after 48 h, triplicate
# Procedure: as §1, §2
# [6] = test system: C. krusei 440009 (clinical isolate); assay: MIC, microtiter plate dilution assay; format: cell-based; conditions: 5 × 10^5 CFU/ml, 37°C, OD600 after 48 h, triplicate
# Procedure: as §1, §2
# [7] = test system: C. parasilosis 450030 (clinical isolate); assay: MIC, microtiter plate dilution assay; format: cell-based; conditions: 5 × 10^5 CFU/ml, 37°C, OD600 after 48 h, triplicate
# Procedure: as §1, §2
# [8] = test system: C. rugos 470141 (clinical isolate); assay: MIC, microtiter plate dilution assay; format: cell-based; conditions: 5 × 10^5 CFU/ml, 37°C, OD600 after 48 h, triplicate
# Procedure: as §1, §2
# [9] = test system: C. tropicalis 420024 (clinical isolate); assay: MIC, microtiter plate dilution assay; format: cell-based; conditions: 5 × 10^5 CFU/ml, 37°C, OD600 after 48 h, triplicate
# Procedure: as §1, §2
# C. tropicalis MTCC 184 = assay: MIC, microtiter plate dilution assay; format: cell-based; conditions: 5 × 10^5 CFU/ml, 37°C, OD600 after 48 h, triplicate
# Procedure: as §1, §2
# S. anginosus MTCC1929 = assay: MIC, microtiter plate dilution assay; format: cell-based; conditions: 5 × 10^5 CFU/ml, 37°C, OD600 after 24 h, triplicate
# Procedure: as §1, §2
# S. mutans MTCC 497 = assay: MIC, microtiter plate dilution assay; format: cell-based; conditions: 5 × 10^5 CFU/ml, 37°C, OD600 after 24 h, triplicate
# Procedure: as §1, §2
# S. oralis MTCC 2696 = assay: MIC, microtiter plate dilution assay; format: cell-based; conditions: 5 × 10^5 CFU/ml, 37°C, OD600 after 24 h, triplicate
# Procedure: as §1, §2
# S. pyogenes MTCC 1928 = assay: MIC, microtiter plate dilution assay; format: cell-based; conditions: 5 × 10^5 CFU/ml, 37°C, OD600 after 24 h, triplicate
# Procedure: as §1, §2
# M. luteus MTCC 106 = assay: MIC, microtiter plate dilution assay; format: cell-based, Micrococcus luteus; conditions: 5 × 10^5 CFU/ml, 37°C, OD600 after 24 h, triplicate
# Procedure: (§3) The antimicrobial activity was tested by well diffusion assay as mentioned earlier ([Singh et al., 2014]). Strain A52 was grown for 24 h in 500 ml of nutrient broth (NB, Hi-media, India) using 1000 ml flask and subsequently cells were removed by centrifugation (10,000 rpm for 15 min at 4°C). Supernatant was filtered through 0.22 μm filter (Millipore, United States) to obtain cell-free fermented broth (CFB) that was used for antimicrobial assay (50 μl) against various indicator strains and the activity was measured as diameter of inhibition zone. […]
# (§4) The minimum inhibitory concentration (MIC) of HPLC purified peptides was evaluated by using microtiter plate dilution assay. […] OD was measured at 600 nm after 24 and 48 h for bacteria and yeast, respectively, using ELISA microplate reader (Thermo, United States). MIC against phytopathogenic fungi was determined using 96-well microtiter plate assay ([Kaur et al., 2016]). […] The microplates were incubated at 25°C and readings were recorded at 600 nm after 48 h. […]
# E. coli MTCC 1610 = assay: MIC, microtiter plate dilution assay; format: cell-based, Escherichia coli; conditions: 5 × 10^5 CFU/ml, 37°C, OD600 after 24 h, triplicate
# Procedure: as §3, §4
# C. albicans MTCC 183 = assay: Scanning electron microscopy of treated cells; format: cell-based, Candida albicans; conditions: 2X and 5X MIC, 37°C overnight
# Procedure: The effect of peptide on cell membrane was determined by scanning electron microscopy (SEM) and transmission electron microscopy (TEM) after treatment with AMPs. For this, test strains S. aureus MTCC 1430 and C. albicans MTCC 183 were cultured to mid-log phase in respective media. The cells were harvested by centrifugation at 10,000 × g for 10 min, washed thrice with 1X PBS, and re-suspended to adjust an OD600 of 0.2. […] Following the incubation, cells were processed for SEM and TEM as described ([Raje et al., 2006]). The specimens were completely dried using freeze drier, coated with gold, and visualized under a scanning electron microscope (ZEISS, Germany). For TEM (JEOL, JEM 2100, United States), cells were treated with peptide, washed, and subjected to negative stain 0.1% sodium phosphotungstate (Sigma, United States) for visualization. Effect of A52 lipopeptide on fungal spore was observed through a phase contrast microscope (Nickon H600L, Japan).
substance,measurement,setting,value
"Glu^1-Leu/Ile^2-Leu^3-Val^4-Asp^5-Leu^6-Leu/Ile^7 and a β-OH hexadecane fatty acid chain (lariat or depsi) [Lipopeptide A52, cyclic surfactin-like lipopeptide, 7 amino acids and C16 β-hydroxy fatty acid, 1061.9 Da, from B. subtilis strain A52]","MIC value, C. aurius 470126",[1],26 µg/mL
same,"MIC value, C. glabrata MTCC 3019",C. glabrata MTCC 3019,16 µg/mL
same,"MIC value, C. glabrata SKSS ID",[2],16 µg/mL
same,"MIC value, C. haemulonii 470125",[3],28 µg/mL
same,"MIC value, C. haemulonii MTCC 2766",C. haemulonii MTCC 2766,20 µg/mL
same,"MIC value, C. inconsplicue MTCC 1074",[4],16 µg/mL
same,"MIC value, C. kefyr 410004",[5],26 µg/mL
same,"MIC value, C. krusei 440009",[6],12 µg/mL
same,"MIC value, C. parasilosis 450030",[7],28 µg/mL
same,"MIC value, C. rugos 470141",[8],16 µg/mL
same,"MIC value, C. tropicalis 420024",[9],28 µg/mL
same,"MIC value, C. tropicalis MTCC 184",C. tropicalis MTCC 184,12 µg/mL
same,"MIC value, S. anginosus MTCC1929",S. anginosus MTCC1929,4 µg/mL
same,"MIC value, S. mutans MTCC 497",S. mutans MTCC 497,6 µg/mL
same,"MIC value, S. oralis MTCC 2696",S. oralis MTCC 2696,4 µg/mL
same,"MIC value, S. pyogenes MTCC 1928",S. pyogenes MTCC 1928,2 µg/mL
same,"MIC value, M. luteus MTCC 106",M. luteus MTCC 106,1 µg/mL
same,"MIC value, E. coli MTCC 1610",E. coli MTCC 1610,6 µg/mL
same,cell morphology in SEM images,C. albicans MTCC 183,disintegrated outer cell membrane

# Source: paper PMC7300217, “Surfactin Like Broad Spectrum Antimicrobial Lipopeptide Co-produced With Sublancin From Bacillus subtilis Strain A52: Dual Reservoir of Bioactives” (Frontiers in Microbiology, 2020)
